Measured values as given in patent US20090048291A1, “Novel Piperidine-4-Acetic Acid Derivatives and Their Use” (Euroscreen S.A., priority 2007, published 2009).
Where two headings read alike, the source gives them in different places.

Legend:
[1] = tested on: recombinant and non-replicative HIV virus coding for the firefly luciferase; assay: Inhibitory effect on HIV infection to MAGI-CCR5 cells (HIV-luciferase assay); format: cell-based
Experimental: The inhibitory activity of the compounds of the invention on HIV infection is measured on the human MAGI R5 recombinant cell line coexpressing the human CCR5 receptor and CD4 at their extracellular membrane. MAGI R5 cells are plated in black view plates at 10,000 cells/well and incubated with the appropriate concentrations of the compounds of the invention during 1 hour. This is followed by a 24 hours infection period with the recombinant and non-replicative HIV virus coding for the firefly luciferase (Bona et al., 2006, Antimicrob. Agents Chemother. 50: 3407-3417). The inhibitory effect of the tested compound on virus entry in MAGI R5 cells is measured by a reduction of luciferase signal (TopCount-NXT reader (Packard) and detection luciferase kit: Steadylite HTS assay kit (Perkin Elmer)) in the presence of the compound of the invention relative to the maximum signal obtained from cells infected with the virus without any added compound. The results of the tested compounds are reported as the concentration of compound required to inhibit 50% (IC50) of the maximum luciferase signal.

[2] = target: T1, CCR5 receptor (Homo sapiens, UniProt P51681); assay: 125I-MIP-1β binding competition assay; parameters: expressed in transfected cells; host or cells: Chinese hamster ovary recombinant cells (membranes)
T1 sequence (P51681 whole entry): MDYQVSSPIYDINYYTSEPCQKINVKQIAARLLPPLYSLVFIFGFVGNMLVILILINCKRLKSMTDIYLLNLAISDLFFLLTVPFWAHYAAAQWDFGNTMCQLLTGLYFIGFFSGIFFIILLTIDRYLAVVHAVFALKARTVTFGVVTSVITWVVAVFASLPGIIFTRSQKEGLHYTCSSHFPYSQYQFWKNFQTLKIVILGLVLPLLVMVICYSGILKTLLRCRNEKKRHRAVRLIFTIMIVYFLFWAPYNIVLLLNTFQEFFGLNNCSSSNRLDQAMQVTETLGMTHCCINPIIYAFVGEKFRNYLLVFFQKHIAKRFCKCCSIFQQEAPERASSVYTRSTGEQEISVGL
Experimental: The ability of the compounds of the invention to inhibit the binding of […] was assessed by an in vitro radioligand binding assay. Membranes were prepared from Chinese hamster ovary recombinant cells which express the human CCR5 receptor. The membranes were incubated with 0.05 nM ^125I-MIP-1β in a HEPES 25 mM/CaCl2 5 mM/MgCl2 1 mM buffer and various concentrations of the compounds of the invention. The amount of iodinated MIP-1β bound to the receptor was determined after filtration by the quantification of membrane associated radioactivity using the TopCount-NXT reader (Packard). Competition curves were obtained for compounds of the invention and the concentration of compound which displaced 50% of bound radioligand (IC50) was calculated

[3] = target: T1, CCR5 receptor; assay: Calcium flux aequorin-based assay (agonist response); format: cell-based; parameters: expressed in transfected cells; host or cells: Chinese hamster ovary cells coexpressing apoaequorin and Gα16; conditions: for EC50: Chinese hamster ovary cells expressing the CCR5 receptor, apoaequorin and Gα16, read-out: Aequorin/Ca++ assay EC50
Experimental: The aequorin assay uses the responsiveness of aequorin to intracellular calcium release induced by the activation of G Protein Coupled Receptors (Stables et al., 1997, Anal. Biochem. 252:115-126; Detheux et al., 2000, J. Exp. Med., 192 1501-1508). Briefly, Chinese hamster ovary cells expressing the CCR5 receptor are transfected to coexpress apoaequorin and Gα16. Cells are incubated with 5 μM Coelenterazine H (Promega) overnight at room temperature, and resuspended at a concentration of 0.1×10^6 cells/ml. Cells are then mixed with test agonist compounds and light emission by the aequorin is recorded with a luminometer (PDSS 6000-Hamamatsu) for 30 sec. Results are expressed as Relative Light Units (RLU). Controls include cells not expressing CCR5 in order to exclude possible non-specific effects of the test compound.
An agonist response is defined as an increase of light emission by aequorin corresponding to 10% or more of the light emitted by a reference sample of cells expressing CCR5 and treated with a the reference agonist ligand MIP-1β. The results of the tested compounds are reported as the concentration of compound required to reach 50% (EC50) of the maximum level of light emission induced by these compounds.

[4] = tested on: recombinant and non-replicative HIV virus coding for the firefly luciferase; assay: Inhibitory effect on HIV infection to MAGI-CCR5 cells (HIV-luciferase assay); format: cell-based; conditions: 10 μM of the compound; MAGI R5 cells (footnote b)
[5] = Human immunodeficiency virus 1, MAGI-CCR5, read-out: HIV-luciferase assay IC50
[6] = membranes of CHO cells expressing human CCR5, 0.05 nM 125I-MIP-1β, read-out: 125I-MIP-1β binding assay IC50

IC50 ([2]; range over the group, read-out: IC50 (125I-MIP-1β binding), range stated in text for the listed compounds) [nM]	SMILES	IC50 [1, 5] [nM]	IC50 [2, 6] [nM]	EC50 [3] [nM]	level of inhibition of luciferase activity compared to the inhibition induced by Rantes at 100 nM [4] [%^b]	IC50 ([1]; Human immunodeficiency virus 1, MAGI, read-out: IC50 (HIV infection of MAGI R5 cells)) [nM]	level of calcium/aequorin response compared to the calcium/aequorin response of MIP-1β at 100 nM ([3]; 10 μM of the compound, activity too low for accurate EC50 calculation (footnote a))
–	O=C(CC1CCN(CCN(c2ccccc2)c2ccccc2)CC1)Nc1ccc(F)cc1 [Compound 4]	2470	70.8	703	–	–	–
–	O=C(CC1CCN(CCN(c2ccccc2)c2ccccc2)CC1)Nc1ccc(Cl)cc1 [Compound 6]	2050	116	1760	–	–	–
–	Cc1ccc(NC(=O)CC2CCN(CCN(c3ccccc3)c3ccccc3)CC2)cc1 [Compound 8]	2160	13.3	425	–	–	–
–	O=C(CC1CCN(CCN(c2ccccc2)c2ccccc2)CC1)NCc1ccc(Cl)cc1 [Compound 15]	1440	106	4410	–	–	–
–	COc1ccc(CNC(=O)CC2CCN(CCN(c3ccccc3)c3ccccc3)CC2)cc1 [Compound 16]	–	143	764	79.6	–	–
–	O=C(CC1CCN(CCN(c2ccccc2)c2ccccc2)CC1)NC1CCCCC1 [Compound 17]	–	134	438	55.8	–	–
–	CCCCc1ccc(NC(=O)CC2CCN(CCN(c3ccccc3)c3ccccc3)CC2)cc1 [Compound 27]	–	167	2330	31.5	–	–
–	O=C(CC1CCN(CCN(c2ccccc2)c2ccccc2)CC1)NCc1ccccc1 [Compound 50]	1600	436	–	–	1600	+9.5%^a
13.3 to 436	Cc1cc(NC(=O)CC2CCN([C@H](C)CN(c3ccccc3)S(=O)(=O)CC3CCC(F)(F)CC3)CC2)[nH]n1 [Compound 55]	–	–	–	–	–	–
–	COc1ccc(NC(=O)CC2CCN(CC[C@H](NC(=O)C3CCC(F)(F)CC3)c3ccccc3)CC2)cc1 [Compound 69]	2.7	–	36.4	–	–	–
–	COc1ccc(NC(=O)CC2CCN([C@H](C)CN(c3ccccc3)S(=O)(=O)Cc3ccccc3)CC2)cc1 [Compound 96]	3.9	0.4	70.6	–	–	–
–	C[C@H](CN(c1ccccc1)S(=O)(=O)Cc1ccccc1)N1CCC(CC(=O)Nc2ccc(F)cc2F)CC1 [Compound 98]	3.6	0.4	60.5	–	–	–
